The results in this text go back to ChEMBL document CHEMBL1128820, “Synthesis and evaluation of nitro 5-deazaflavins as novel bioreductive antitumor agents” (Bioorg Med Chem Lett, 1995).

Format in all cases: functional, cell-based
Experiment [1] deals with KB. The experiment can be described thus: In vitro antitumor activity against human epidermoid carcinoma KB cells by using MTT assay; No significant cytotoxicity. (Formazan colour is commonly taken as a measure of viable cells.)
The test system of experiment [2] is L1210. Description: In vitro antitumor activity against murine lymphoma L1210 cells by using MTT assay; No significant cytotoxicity. As to conditions: Mus musculus.
In experiment [3] the test system is KB. Description: In vitro antitumor activity against human epidermoid carcinoma KB cells by MTT assay.
The subject of experiment [4] is L1210. The experiment can be described thus: In vitro antitumor activity against murine lymphoma L1210 cells by MTT assay. The following applies: Mus musculus.

Where only a bound is given, the exact number is not on record here.

The IC50 is the concentration at which inhibition is half-maximal. Lower therefore signals greater potency in that assay. Consider `CCCCCCCCn1c2nc(=O)n(-c3ccccc3)c(=O)c-2cc2ncccc21`, for which the IC50 in experiment [1] and in experiment [2] was greater than 200 µM throughout.

`CCCCCCCCCCCCn1c2nc(=O)[nH]c(=O)c-2cc2cc([N+](=O)[O-])ccc21`: the IC50 came out at 26.4 µM in experiment [3] and 6.8 µM in experiment [4].

Turning to `CCCCCCCCn1c2nc(=O)n(-c3ccccc3)c(=O)c-2cc2ccc([N+](=O)[O-])cc21`, the IC50 in experiment [3] came out at 12.4 µM; in experiment [4], 2.6 µM.

As to `CCCCCCCCCCCCn1c2nc(=O)[nH]c(=O)c-2cc2ccc(C(F)(F)F)cc21`, the 50% inhibitory concentration (IC50) in experiment [1] and in experiment [2] was greater than 200 µM each time.

In the case of `CCCCCCCCCCCCn1c2nc(=O)[nH]c(=O)c-2cc2ccc([N+](=O)[O-])cc21`, the values for the IC50 in experiment [3] and in experiment [4] were 12.8 µM and 2.5 µM, respectively.

As to `CCCCCCCCn1c2nc(=O)n(-c3ccccc3)c(=O)c-2cc2ccccc21`, the 50% inhibitory concentration (IC50) in experiment [1] and in experiment [2] was greater than 200 µM throughout.

For `CCCCCCCCn1c2nc(=O)n(-c3ccccc3)c(=O)c-2cc2cccc([N+](=O)[O-])c21`, the 50% inhibitory concentration (IC50) in experiment [3] was 6 µM; in experiment [4], 1.5 µM.

As for `CCCCCCCCCCCCn1c2nc(=O)n(C)c(=O)c-2cc2ncccc21`, the IC50 in experiment [1] and in experiment [2] was greater than 200 µM each time.

In the case of `CCCCCCCCCCCCn1c2nc(=O)n(C)c(=O)c-2cc2ccc([N+](=O)[O-])cc21`, the concentration for half-maximal inhibition (IC50) in experiment [3] was 8 µM; in experiment [4] it was 5.2 µM.

With `CCCCCCCCn1c2nc(=O)n(CC(=O)OCC)c(=O)c-2cc2c([N+](=O)[O-])cccc21`, the concentration for half-maximal inhibition (IC50) amounted to 7.6 µM in experiment [3] and 3 µM in experiment [4].

In the case of `CCCCCCCCn1c2nc(=O)n(CC(=O)OCC)c(=O)c-2cc2ccc([N+](=O)[O-])cc21`, the IC50 in experiment [3] amounted to 7.6 µM; in experiment [4] it was 8.4 µM.

As for `CCCCCCCCCCCCn1c2nc(=O)[nH]c(=O)c-2cc2cccc([N+](=O)[O-])c21`, the 50% inhibitory concentration (IC50) is 2.6 µM in experiment [3] and 1.8 µM in experiment [4].

Consider `CCCCCCCCn1c2nc(=O)n(-c3ccccc3)c(=O)c-2cc2c([N+](=O)[O-])cccc21`, for which the figures for the IC50 in experiment [3] and in experiment [4] were 8.4 µM and 2.6 µM, respectively.

Take `CCCCCCCCCCCCn1c2nc(=O)[nH]c(=O)c-2cc2c([N+](=O)[O-])cccc21`: the concentration for half-maximal inhibition (IC50) in experiment [3] is 3.2 µM; in experiment [4] it was 0.4 µM.

As to `CCCCCCCCn1c2nc(=O)n(CC(=O)OCC)c(=O)c-2cc2cc([N+](=O)[O-])ccc21`, the 50% inhibitory concentration (IC50) in experiment [3] was determined as 30 µM; in experiment [4], 12 µM.

As for `CCCCCCCCCCCCn1c2nc(=O)n(C)c(=O)c-2cc2cc([N+](=O)[O-])ccc21`, the IC50 in experiment [3] was determined as 15.8 µM; in experiment [4], 21.6 µM.

Consider `CCCCCCCCn1c2nc(=O)n(CC(=O)OCC)c(=O)c-2cc2cccc([N+](=O)[O-])c21`, for which the results for the IC50 in experiment [3] and in experiment [4] were 3.6 µM and 4 µM, respectively.

For `CCCCCCCCCCCCn1c2nc(=O)[nH]c(=O)c-2cc2cc(C(F)(F)F)ccc21`, the half-inhibitory concentration (IC50) in experiment [1] and in experiment [2] was greater than 200 µM each time.

Regarding `CCCCCCCCCCCCn1c2nc(=O)[nH]c(=O)c-2cc2ccccc21`, the half-maximal inhibitory concentration (IC50) in experiment [1] and in experiment [2] was greater than 200 µM throughout.

As for `CCCCCCCCCCCCn1c2nc(=O)n(C)c(=O)c-2cc2cccc([N+](=O)[O-])c21`, the IC50 in experiment [3] was 20 µM; in experiment [4], 7.8 µM.

As for `CCCCCCCCn1c2nc(=O)n(-c3ccccc3)c(=O)c-2cc2cccnc21`, the concentration for half-maximal inhibition (IC50) in experiment [1] and in experiment [2] was greater than 200 µM throughout.

Turning to `CCCCCCCCCCCCn1c2nc(=O)n(C)c(=O)c-2cc2cccnc21`, the 50% inhibitory concentration (IC50) in experiment [1] and in experiment [2] was greater than 200 µM throughout.

`CCCCCCCCCCCCn1c2nc(=O)n(C)c(=O)c-2cc2c([N+](=O)[O-])cccc21`: the IC50 in experiment [3] was 6.8 µM; in experiment [4], 1.6 µM.

Consider `CCCCCCCCn1c2nc(=O)n(-c3ccccc3)c(=O)c-2cc2cc([N+](=O)[O-])ccc21`, for which the results for the IC50 in experiment [3] and in experiment [4] were 7.6 µM and 9.6 µM, respectively.

For the compound `CCCCCCCCn1c2nc(=O)n(CC(=O)OCC)c(=O)c-2cc2ccccc21`, the IC50 in experiment [1] and in experiment [2] was greater than 200 µM throughout.

With `CCCCCCCCCCCCn1c2nc(=O)n(C)c(=O)c-2cc2ccccc21`, the IC50 in experiment [1] and in experiment [2] was greater than 200 µM throughout.

With `CO[C@@]12[C@H](COC(N)=O)C3=C(C(=O)C(C)=C(N)C3=O)N1C[C@@H]1N[C@@H]12` [MITOMYCIN], the IC50 is 0.4 µM in experiment [3] and 0.6 µM in experiment [4].
